Results: patent US9797016B2, “Methods and biomarkers for detection of bladder cancer” (OSLO UNIVERSITETSSYKEHUS HF, priority 2010, dated 2017)

Test system: bladder cancer cell lines (5637, J82, SCaBER, TCCSUP)
Experiment: Quantitative gene expression analyses (real-time PCR) after epigenetic drug treatment
Format: cell-based, human
Conditions: hypermethylated bladder cancer cell lines; 1 μM or 5 μM 5-aza-dC alone, 72 hours
Protocol: Cell lines representative of bladder (5637, J82, SCaBER, and TCCSUP), renal cell (786-0, ACHN, Caki-1, Caki-2) and prostate (22Rv1, DU 145, LNCaP, PC-3) cancer were obtained from the American Type Culture Collection (Manassas, Va.). All cell lines were cultured according to the manufacturer's specifications, with 10% fetal bovine serum (Gibco, Invitrogen, Carlsbad, Calif.) and antibiotics (100 units/mL penicillin G, and 100 μg/mL streptomycin, Gibco), in a humidified atmosphere of 5% CO2 at 37° C. […] RNA from four bladder cancer cell lines untreated, treated either with 1 μM or 5 μM of 5-aza-2′-deoxycytidine for 72 hours, and treated with the combination of 1 μM of 5-aza-dC (72 h) and 0.5 μM of trichostatin (added the last 12 h) was analyzed. […] GDF15 (Hs00171132_m1), HSPA2 (Hs00356607_g1), TMEFF2 (Hs01086901_m1), VIM (Hs00185584_m1), and endogenous controls assays GUSB (Hs99999908_m1) and HPRTJ (Hs99999909_m1), were amplified separately in 96-well plates following the recommended protocol (Applied Biosystems), and the real time quantitative gene expression was measured by the 7500 Real-Time PCR System (Applied Biosystems). All samples were analyzed in triplicate, and the mean value was used for data analysis. […]

Structure (SMILES): Nc1ncn([C@H]2C[C@H](O)[C@@H](CO)O2)c(=O)n1 [5-aza-dC, 5-aza-2′-deoxycytidine]
- transcript expression of GDF15, HSPA2, TMEFF2 and VIM after promoter demethylation: restored or increased
